Test results: patent US4476122A, “Alkyloximes of 7-amino-thiazolyl-acetamido-cephalosporanic acids” (Roussel Uclaf, priority 1976, dated 1984)
Values after ≈ are worked out from the molar mass of the structure shown. Where two headings read alike, the source gives them in different places.

What was measured:
[1] = system: Escherichia Coli Exp. TO26 B6; assay: MIC, liquid medium dilution; format: cell-based
Procedure: (§1) The method used was a dilution of a liquid medium where a series of tubes received the same quantity of a sterile nutritive media and increasing doses of the test compounds were placed therein. Then each tube was seeded with a bacterial strain and was incubated for 24 or 48 hours at 37° C. in an oven. The increasing inhibition was determined by transillumination to determine the minimum inhibiting concentration (MIC in μg/ml) and the results are reported in the following Tables.

[2] = system: Escherichia Coli Resistant Tetracycline ATCC 11 303; assay: MIC, liquid medium dilution; format: cell-based
Procedure: as §1

[3] = system: Streptococcus pyogenes A 561; assay: MIC, liquid medium dilution; format: cell-based
Procedure: as §1

[4] = system: Escherichia Coli Resistant Gentamicine, Tobramycine R 55 123 D; assay: MIC, liquid medium dilution; format: cell-based
Procedure: as §1

[5] = system: Klebsiella pneumoniae 2 536 Resistant Gentamicine; assay: MIC, liquid medium dilution; format: cell-based
Procedure: as §1

[6] = system: Staphylococcus aureus ATCC 6 538 Pen-Sensitive; assay: MIC, liquid medium dilution; format: cell-based
Procedure: as §1

[7] = system: Escherichia Coli Sensitive Tetracycline ATCC 9 637; assay: MIC, liquid medium dilution; format: cell-based
Procedure: as §1

[8] = system: Proteus vulgaris (indol+) A 232; assay: MIC, liquid medium dilution; format: cell-based
Procedure: as §1

[9] = system: Staphylococcus aureus exp. n° 54 146; assay: MIC, liquid medium dilution; format: cell-based
Procedure: as §1

[10] = system: Bacillus subtilis ATCC 6 633; assay: MIC, liquid medium dilution; format: cell-based
Procedure: as §1

Providencia Du 48 = assay: MIC, liquid medium dilution; format: cell-based
Procedure: as §1

[11] = system: Streptococcus faecalis 99 F 74; assay: MIC, liquid medium dilution; format: cell-based; settings: Enterococcus faecalis
Procedure: as §1

[12] = system: Staphylococcus aureus UC 1 128 Pen-Resistant; assay: MIC, liquid medium dilution; format: cell-based
Procedure: as §1

[13] = system: Proteus mirabilis (indol-) A 235; assay: MIC, liquid medium dilution; format: cell-based
Procedure: as §1

[14] = system: Serratia Resistant Gentamicine 2 532; assay: MIC, liquid medium dilution; format: cell-based
Procedure: as §1

[15] = system: Klebsiella pneumoniae Exp. 52 145; assay: MIC, liquid medium dilution; format: cell-based
Procedure: as §1

[16] = system: Streptococcus faecalis 5 432; assay: MIC, liquid medium dilution; format: cell-based
Procedure: as §1

[17] = system: Salmonella typhimurium 420; assay: MIC, liquid medium dilution; format: cell-based; settings: Salmonella enterica
Procedure: as §1

Enterobacter cloacae 681 = assay: MIC, liquid medium dilution; format: cell-based
Procedure: as §1

[18] = system: Klebsiella pneumonia 52,145; assay: Experimental infection with Klebsiella pneumonia in mice (D); format: in vivo
Procedure: The activity of the products of Examples 19 and 21 was studied on an experimental infection of Klebsiella pneumonia in mice. Groups of 10 male mice weighing 21.5 g received intraperitoneally 0.5 ml of a 24 hour culture in nutritive media of Klebsiella pneumonia 52,145 diluted by 1/1000 with distilled water. The products were administered subcutaneously 1,5 and 24 hours after the injection and the number of dead mice were determined using 10th days.

[19] = Enterococcus faecalis, 5432, 24 h
[20] = Enterococcus faecalis, 5432, 48 h

## CO/N=C(/C(=O)NC1C(=O)N2C(C(=O)O)=C(C)CS[C@H]12)c1csc(N)n1 (some centres unmarked) [Example 15, 7-[{2-(2-amino-4-thiazolyl)-2-methoxyiminoacetyl}amino]-3-methyl-ceph-3-eme-4-carboxylic acid]
[1]; 24 h
  MIC: > 100 µg/mL
[1]; 48 h
  MIC: > 100 µg/mL
[2]; ATCC11, 24 h
  MIC: > 100 µg/mL
[2]; ATCC11, 48 h
  MIC: > 100 µg/mL
[3]; A561, 24 h
  MIC: 2 µg/mL (≈ 5.03 µM)
[3]; A561, 48 h
  MIC: 3 µg/mL (≈ 7.55 µM)
[4]; 24 h
  MIC: > 100 µg/mL
[4]; 48 h
  MIC: > 100 µg/mL
[5]; 24 h
  MIC: > 100 µg/mL
[5]; 48 h
  MIC: > 100 µg/mL
[6]; ATCC6, 24 h
  MIC: > 100 µg/mL
[6]; ATCC6, 48 h
  MIC: > 100 µg/mL
[7]; ATCC9, 24 h
  MIC: > 100 µg/mL
[7]; ATCC9, 48 h
  MIC: > 100 µg/mL
[8]; 24 h
  MIC: > 100 µg/mL
[8]; 48 h
  MIC: > 100 µg/mL
[9]; 24 h
  MIC: > 100 µg/mL
[9]; 48 h
  MIC: > 100 µg/mL
[10]; ATCC6, 24 h
  MIC: > 100 µg/mL
[10]; ATCC6, 48 h
  MIC: > 100 µg/mL
Providencia Du 48; DU48, 24 h
  MIC: > 100 µg/mL
Providencia Du 48; DU48, 48 h
  MIC: > 100 µg/mL
[11]; 99F74, 24 h
  MIC: > 100 µg/mL
[11]; 99F74, 48 h
  MIC: > 100 µg/mL
[12]; UC1, 24 h
  MIC: > 100 µg/mL
[12]; UC1, 48 h
  MIC: > 100 µg/mL
[13]; 24 h, read-out: MIC
  MIC: 20 µg/mL (≈ 50.3 µM)
[13]; 48 h, read-out: MIC
  MIC: 40 µg/mL (≈ 101 µM)
[14]; 24 h
  MIC: > 100 µg/mL
[14]; 48 h
  MIC: > 100 µg/mL
[15]; EXP.52145, 24 h, read-out: MIC
  MIC: 100 µg/mL (≈ 252 µM)
[15]; EXP.52145, 48 h, read-out: MIC
  MIC: 100 µg/mL (≈ 252 µM)
[16]; [19]
  MIC: > 100 µg/mL
[16]; [20]
  MIC: > 100 µg/mL
[17]; 24 h
  MIC: > 100 µg/mL
[17]; 48 h
  MIC: > 100 µg/mL

## CO/N=C(/C(=O)NC1C(=O)N2C(C(=O)O)=C(CSC(C)=O)CSC12)c1csc(N)n1 (centres unmarked) [Example 17, 3-acetylthiomethyl-7-[{2-(2-amino-4-thiazolyl)-2-methoxyiminoacetyl}amino]-ceph-3-eme-4-carboxylic acid]
[1]; 24 h
  MIC: 20 µg/mL (≈ 42.4 µM)
[1]; 48 h
  MIC: 40 µg/mL (≈ 84.8 µM)
[2]; ATCC11, 24 h
  MIC: 5 µg/mL (≈ 10.6 µM)
[2]; ATCC11, 48 h
  MIC: 5 µg/mL (≈ 10.6 µM)
[3]; A561, 24 h
  MIC: 0.2 µg/mL (≈ 0.424 µM)
[3]; A561, 48 h
  MIC: 0.2 µg/mL (≈ 0.424 µM)
[4]; 24 h
  MIC: 40 µg/mL (≈ 84.8 µM)
[4]; 48 h
  MIC: 40 µg/mL (≈ 84.8 µM)
[5]; 24 h
  MIC: > 100 µg/mL
[5]; 48 h
  MIC: > 100 µg/mL
[6]; ATCC6, 24 h
  MIC: 20 µg/mL (≈ 42.4 µM)
[6]; ATCC6, 48 h
  MIC: 20 µg/mL (≈ 42.4 µM)
[7]; ATCC9, 24 h
  MIC: 40 µg/mL (≈ 84.8 µM)
[7]; ATCC9, 48 h
  MIC: 40 µg/mL (≈ 84.8 µM)
[8]; 24 h
  MIC: > 100 µg/mL
[8]; 48 h
  MIC: > 100 µg/mL
[9]; 24 h
  MIC: 40 µg/mL (≈ 84.8 µM)
[9]; 48 h
  MIC: 40 µg/mL (≈ 84.8 µM)
[10]; ATCC6, 24 h
  MIC: 5 µg/mL (≈ 10.6 µM)
[10]; ATCC6, 48 h
  MIC: 20 µg/mL (≈ 42.4 µM)
Providencia Du 48; DU48, 24 h
  MIC: > 100 µg/mL
Providencia Du 48; DU48, 48 h
  MIC: > 100 µg/mL
[11]; 99F74, 24 h
  MIC: > 100 µg/mL
[11]; 99F74, 48 h
  MIC: > 100 µg/mL
[12]; UC1, 24 h
  MIC: 40 µg/mL (≈ 84.8 µM)
[12]; UC1, 48 h
  MIC: 100 µg/mL (≈ 212 µM)
[13]; 24 h
  MIC: 5 µg/mL (≈ 10.6 µM)
[13]; 48 h
  MIC: 40 µg/mL (≈ 84.8 µM)
[14]; 24 h
  MIC: > 100 µg/mL
[14]; 48 h
  MIC: > 100 µg/mL
Enterobacter cloacae 681; Enterobacter cloacae, 681, 24 h
  MIC: 40 µg/mL (≈ 84.8 µM)
Enterobacter cloacae 681; Enterobacter cloacae, 681, 48 h
  MIC: 100 µg/mL (≈ 212 µM)
[15]; EXP.52145, 24 h
  MIC: 40 µg/mL (≈ 84.8 µM)
[15]; EXP.52145, 48 h
  MIC: 40 µg/mL (≈ 84.8 µM)
[16]; [19]
  MIC: > 100 µg/mL
[16]; [20]
  MIC: > 100 µg/mL
[17]; 24 h
  MIC: 40 µg/mL (≈ 84.8 µM)
[17]; 48 h
  MIC: 40 µg/mL (≈ 84.8 µM)

## CO/N=C(\C(=O)NC1C(=O)N2C(C(=O)O)=C(CSc3nnc(C)s3)CS[C@H]12)c1csc(N)n1 (some centres unmarked) [Example 19, sodium 7-[{2-(2-amino-4-thiazolyl)-2-methoxyiminoacetyl}amino]-3-[(2-methyl-1,3,4-thiadiazol-5-yl)-thiomethyl]-ceph-3-eme-4-carboxylate]
[18]; subcutaneous, 0,1 mg
  Mice alive on the 10th day: 9/10
  Mortality after 6eJ (number of dead of 10): 1
[18]; subcutaneous, 0,05 mg
  Mice alive on the 10th day: 6/10
  Mortality after 4eJ (number of dead of 10): 1
  Mortality after 5eJ (number of dead of 10): 2
  Mortality after 7eJ (number of dead of 10): 1
[18]; subcutaneous, 0,5 mg
  Mice alive on the 10th day: 10/10
[18]; subcutaneous, 0,25 mg
  Mice alive on the 10th day: 10/10
[18]; subcutaneous, 1 mg
  Mice alive on the 10th day: 10/10
